# Data taken from paper PMC3111189, “Bioactive Indole Derivatives from the South Pacific Marine Sponges Rhopaloeides odorabile and Hyrtios sp” (Marine Drugs, 2011).
# “And” between values parts separate entries of the source, which are not always exact repeats. Equal values may be shown once. Read-outs that look alike come from different tables or passages of the source.
# How the values were obtained:
# bee venom PLA2 = bee venom PLA2 (Apis mellifera, UniProt P00630); experiment: biochemical
# [1] = Quantitative ORAC assay (fluorescein/AAPH); details: for ORAC FL relative ORAC value: fluorescein (FL) + AAPH, n = 3, Trolox = 1; for fold less active than Trolox: ORAC assay, compared with Trolox; for concentration displaying FL decay curve similar to Trolox: fluorescein fluorescence decay induced by AAPH, Figure 3
# KB cells = experiment: Cytotoxicity assay (MTS) on KB cells
# Procedure: The human KB cell line was obtained from ECACC (Salisbury, UK) and grown in D-MEM medium supplemented with 10% fetal calf serum (Invitrogen), in the presence of penicillin, streptomycin and fungizone in a 75 cm^2 flask under 5% CO2. Cells were plated in 96-well tissue culture microplates at a density of 650 cells/well in 200 μL medium and treated 24 hrs later with compounds dissolved in DMSO using a Biomek 3000 automate (Beckman-Coulter). Controls received the same volume of DMSO (1% final volume).
# Sequence of bee venom PLA2 (P00630 34-167 limits assumed): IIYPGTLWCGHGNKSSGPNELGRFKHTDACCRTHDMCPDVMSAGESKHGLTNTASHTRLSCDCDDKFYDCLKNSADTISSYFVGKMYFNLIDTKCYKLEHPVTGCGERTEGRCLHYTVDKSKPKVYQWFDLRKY
SMILES,"IC50 (bee venom PLA2; n = 2, read-out: PLA2 IC50) [µM]",ORAC FL relative ORAC value [1],other results
"NC(=O)C(=O)c1c[nH]c2ccccc12 [Compound 1, (1H-Indol-3-yl)oxoacetamide]",–,–,IC50 (bee venom PLA2): 1170 ± 50 µM
"CNCCc1c[nH]c2cc(Br)c(Br)cc12 [Compound 6, N-Methyl-5,6-dibromotryptamine]",330 ± 30,–,–
"O=Cc1c[nH]c2cc(Br)ccc12 [Compound 3, 6-Bromoindole-3-carbaldehyde]",1270 ± 60,–,–
"NCCc1c[nH]c2cc(Br)c(Br)cc12 [Compound 5, 5,6-Dibromotryptamine]",620 ± 10,–,–
"CN[C@@H](Cc1c[nH]c2cc(Br)c(Br)cc12)C(=O)O [Compound 8, 5,6-Dibromoabrine]",300 ± 10,0.07 ± 0.01 relative Trolox equivalent,–
"C[N+](C)(C)[C@@H](Cc1c[nH]c2cc(Br)c(Br)cc12)C(=O)[O-] [Compound 9, 5,6-Dibromo-L-hypaphorine]",200 ± 10,0.22 relative Trolox equivalent and 0.22 ± 0.04 relative Trolox equivalent,"cytotoxicity towards KB cells (KB cells; at 10^−4 M, human KB cell line): did not show any cytotoxic activity; fold less active than Trolox [1]: 4 fold; concentration displaying FL decay curve similar to Trolox [1]: 24.2 µM"
"Cc1c(C)c2c(c(C)c1O)CCC(C)(C(=O)O)O2 (centres unmarked) [Trolox, reference compound]",–,1 relative Trolox equivalent,–
"COC(=O)C(=O)c1c[nH]c2ccccc12 [Compound 2, (1H-Indol-3-yl)oxoacetic acid methyl ester]",1110 ± 330,–,–
"CN(C)CCc1c[nH]c2cc(Br)c(Br)cc12 [Compound 7, N,N-Dimethyl-5,6-dibromotryptamine]",770 ± 50,0.06 ± 0.01 relative Trolox equivalent,–
"C[C@H]1CC[C@H]2C(C)(C)CCC[C@]23Oc2ccc(O)cc2C[C@]13C [Compound 4, Aureol]",460 ± 20,0.29 relative Trolox equivalent and 0.29 ± 0.03 relative Trolox equivalent,"IC50 (KB cells; Homo sapiens, KB, 72 h, read-out: KB cells IC50 (50% inhibition of cell proliferation)): 5 µM; fold less active than Trolox [1]: 3 fold; concentration displaying FL decay curve similar to Trolox [1]: 15.5 µM"
